In series [1] the target is CYP3A4 (Homo sapiens, UniProt P08684). Nature of the series: metabolite formation by recombinant CYP Supersomes, LC/MS. The class given is cell-based.
For series [2], the target named is CYP2D6 (Homo sapiens, UniProt P10635). Nature of the series: UV-visible spectral binding titration, purified enzyme.
Series [3] deals with CYP1A2 (Homo sapiens, UniProt P05177). Description: metabolite formation by recombinant CYP Supersomes, LC/MS. Type of series: cell-based.
CYP1A2, sequence (P16435 2-677): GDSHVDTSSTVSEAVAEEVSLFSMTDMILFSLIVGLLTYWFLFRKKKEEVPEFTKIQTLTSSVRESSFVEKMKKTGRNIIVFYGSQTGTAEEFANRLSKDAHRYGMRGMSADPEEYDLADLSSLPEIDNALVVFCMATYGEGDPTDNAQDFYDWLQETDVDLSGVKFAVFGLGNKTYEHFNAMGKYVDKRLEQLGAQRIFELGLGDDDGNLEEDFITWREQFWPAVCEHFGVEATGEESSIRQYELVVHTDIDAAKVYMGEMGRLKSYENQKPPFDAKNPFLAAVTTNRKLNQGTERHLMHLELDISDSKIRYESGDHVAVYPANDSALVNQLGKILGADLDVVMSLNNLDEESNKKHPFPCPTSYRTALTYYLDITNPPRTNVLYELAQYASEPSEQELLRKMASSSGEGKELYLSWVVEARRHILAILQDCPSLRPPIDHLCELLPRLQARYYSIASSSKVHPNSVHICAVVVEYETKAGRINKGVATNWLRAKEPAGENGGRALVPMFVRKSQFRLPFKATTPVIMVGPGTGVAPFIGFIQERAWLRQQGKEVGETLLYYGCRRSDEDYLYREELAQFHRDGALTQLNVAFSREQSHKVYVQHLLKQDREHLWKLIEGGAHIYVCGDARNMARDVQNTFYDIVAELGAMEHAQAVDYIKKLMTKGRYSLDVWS
CYP1A2, sequence (P05177 2-516): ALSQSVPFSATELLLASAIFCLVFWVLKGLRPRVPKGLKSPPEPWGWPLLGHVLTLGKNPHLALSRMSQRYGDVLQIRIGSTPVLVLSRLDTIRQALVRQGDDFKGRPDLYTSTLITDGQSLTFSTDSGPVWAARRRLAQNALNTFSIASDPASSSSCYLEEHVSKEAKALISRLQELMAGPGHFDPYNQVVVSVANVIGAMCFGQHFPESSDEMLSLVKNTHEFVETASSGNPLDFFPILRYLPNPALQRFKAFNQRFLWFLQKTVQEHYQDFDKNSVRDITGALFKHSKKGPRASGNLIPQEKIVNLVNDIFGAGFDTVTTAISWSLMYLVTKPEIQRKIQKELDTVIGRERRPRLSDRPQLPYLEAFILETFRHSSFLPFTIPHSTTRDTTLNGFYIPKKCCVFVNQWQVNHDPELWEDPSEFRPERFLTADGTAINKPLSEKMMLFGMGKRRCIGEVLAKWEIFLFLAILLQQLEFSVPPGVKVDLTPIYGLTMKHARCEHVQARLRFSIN

CYP3A4, sequence (P16435 2-677): as the sequence (P16435 2-677) above
CYP3A4, sequence (P08684 2-503): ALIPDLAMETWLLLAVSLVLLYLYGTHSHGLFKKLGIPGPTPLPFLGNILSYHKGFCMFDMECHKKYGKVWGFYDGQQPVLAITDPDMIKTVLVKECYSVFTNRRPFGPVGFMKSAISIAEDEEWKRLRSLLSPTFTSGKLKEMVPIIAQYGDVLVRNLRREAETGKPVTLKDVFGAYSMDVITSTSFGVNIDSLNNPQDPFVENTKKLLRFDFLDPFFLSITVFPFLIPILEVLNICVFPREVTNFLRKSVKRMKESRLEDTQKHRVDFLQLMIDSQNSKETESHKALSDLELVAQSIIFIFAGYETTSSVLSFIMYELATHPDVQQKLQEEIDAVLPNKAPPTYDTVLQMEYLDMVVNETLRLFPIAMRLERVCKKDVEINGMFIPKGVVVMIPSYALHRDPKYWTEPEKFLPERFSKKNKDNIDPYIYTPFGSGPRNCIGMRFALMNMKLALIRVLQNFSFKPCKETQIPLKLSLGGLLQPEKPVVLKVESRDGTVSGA
CYP2D6, sequence (P10635 whole entry): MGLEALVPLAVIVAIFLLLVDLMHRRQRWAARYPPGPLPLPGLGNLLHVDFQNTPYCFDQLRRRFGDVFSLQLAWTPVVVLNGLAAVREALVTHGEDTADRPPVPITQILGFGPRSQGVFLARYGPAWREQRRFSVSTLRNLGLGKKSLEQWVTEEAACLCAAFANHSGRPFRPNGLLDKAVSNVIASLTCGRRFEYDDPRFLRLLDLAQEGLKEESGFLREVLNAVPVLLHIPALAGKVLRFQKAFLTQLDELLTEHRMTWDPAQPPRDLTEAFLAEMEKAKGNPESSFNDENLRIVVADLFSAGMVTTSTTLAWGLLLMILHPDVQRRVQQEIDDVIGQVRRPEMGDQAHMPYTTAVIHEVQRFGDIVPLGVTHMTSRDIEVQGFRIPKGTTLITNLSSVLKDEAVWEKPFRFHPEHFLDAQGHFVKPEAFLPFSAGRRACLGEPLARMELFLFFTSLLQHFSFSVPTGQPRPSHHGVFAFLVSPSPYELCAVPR

In the case of `CCN(CC)CCNC(=O)c1cc(Cl)c(N)cc1OC` [Metoclopramide, 4-amino-5-chloro-N-(2-(diethylamino)ethyl)-2-methoxybenzamide], the “metabolite formation by recombinant CYP Supersomes, LC/MS” value in series [1] was “All three monooxygenation products (M4a, M4b, M4c) were formed by CYP3A4 and CYP2D6”; in series [3] it was “CYPs 1A2, 2C9, 2C19, and 3A4 also metabolized metoclopramide”. Moreover, in series [2], the Kd (in general, the free concentration of one partner at which half of the binding sites on the other are occupied at equilibrium, for simple one-to-one binding) amounted to 9.56 ± 1.09 µM.
